{"source": "paper PMC12110821", "about": "“Polyphyllin I Inhibits the Metastasis of Cervical Cancer Through the Regulation of the β-Catenin Signaling Pathway” (International Journal of Molecular Sciences, 2025)", "biological_target": "T1, β-catenin (Homo sapiens, UniProt P35222)", "T1 construct": "gene CTNNB1; β-catenin protein (11279-H20B, Sinobiological)", "T1 sequence (P35222 2-781)": "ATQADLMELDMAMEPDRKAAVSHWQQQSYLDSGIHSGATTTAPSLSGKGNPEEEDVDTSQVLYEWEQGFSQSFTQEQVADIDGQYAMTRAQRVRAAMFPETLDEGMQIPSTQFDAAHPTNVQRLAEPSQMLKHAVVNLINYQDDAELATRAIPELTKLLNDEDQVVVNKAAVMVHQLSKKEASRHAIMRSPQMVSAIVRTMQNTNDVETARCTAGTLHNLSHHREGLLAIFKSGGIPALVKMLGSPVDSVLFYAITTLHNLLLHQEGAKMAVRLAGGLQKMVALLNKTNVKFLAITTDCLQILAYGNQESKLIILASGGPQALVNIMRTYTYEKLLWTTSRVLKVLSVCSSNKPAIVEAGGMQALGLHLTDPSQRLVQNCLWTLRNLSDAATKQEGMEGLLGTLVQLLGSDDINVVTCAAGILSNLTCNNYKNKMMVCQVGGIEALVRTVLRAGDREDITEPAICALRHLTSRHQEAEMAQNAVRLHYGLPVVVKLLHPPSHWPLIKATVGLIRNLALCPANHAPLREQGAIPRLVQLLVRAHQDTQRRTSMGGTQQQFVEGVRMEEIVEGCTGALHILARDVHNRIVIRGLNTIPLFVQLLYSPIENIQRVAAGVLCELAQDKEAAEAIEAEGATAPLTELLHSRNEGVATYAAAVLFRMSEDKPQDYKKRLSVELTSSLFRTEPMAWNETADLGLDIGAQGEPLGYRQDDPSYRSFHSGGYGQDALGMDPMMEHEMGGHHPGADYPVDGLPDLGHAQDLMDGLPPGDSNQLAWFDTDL", "assay": "SPR (Biacore T200, CM5 chip, amine-coupled β-catenin); supported by CETSA in HO-8910PM lysate", "assay_type": "binding", "data": [{"compound": "C[C@@H]1CC[C@@]2(OC1)O[C@H]1C[C@H]3[C@@H]4CC=C5C[C@@H](O[C@@H]6O[C@H](CO)[C@@H](O[C@@H]7O[C@@H](CO)[C@H](O)[C@H]7O)[C@H](O)[C@H]6O[C@@H]6O[C@@H](C)[C@H](O)[C@@H](O)[C@H]6O)CC[C@]5(C)[C@H]4CC[C@]3(C)[C@H]1[C@@H]2C", "note": "[PPI, Polyphyllin I]", "values": [{"measurement": "Kd", "result": 2200, "unit": "nM"}]}]}
